Entries after “also recorded” stand apart in the source; their conditions may differ. One block for each compound: values may come before it.
How the values were obtained:
[1] = tested on: SKVLB1 cells (vinblastine-resistant, P-glycoprotein-overexpressing sub-line of SKOV3); experiment: Inhibition of growth of SKVLB1 cells; type: cell-based; conditions: Homo sapiens
Protocol: The Jurkat T cell leukemia line and A-10 rat aortic smooth muscle cells are obtained from the American Type Culture Collection and are cultured in BME containing 10% FBS and 50 μg/mL gentamycin sulfate. […] Both cell lines are maintained in BME containing 10% FBS and 50 μg/mL gentamycin sulfate.
Cell proliferation assays are performed as described by Skehan et al. For Jurkat cells, cultures are treated with the indicated drugs as described in Skehan and total cell numbers are determined by counting the cells in a hemacytometer. The percentage of cells in mitosis are determined by staining with 0.4% Giemsa in PBS followed by rapid washes with PBS. At least 1000 cells per treatment are scored for the presence of mitotic figures and the mitotic index is calculated as the ration of the cells with mitotic figures to the total number of cells counted.
SKVLB1 cells are resistant to natural product anticancer drugs because of their over expression of P-glycoprotein.

[2] = tested on: A-10 rat aortic smooth muscle cells; experiment: Immunofluorescence assays of the cytoskeleton in A-10 cells; type: cell-based; conditions: for Microtubule repolymerization after removal of drug: 100 nM for 24 hr
Protocol: A-10 cells are grown to near-confluency on glass coverslips in BME/10% FBS. Compounds in PBS are added to the indicated final concentrations and cells are incubated for an additional 24 hours. For the staining of microtubules and intermediate filaments, the cells are fixed with cold methanol and incubated with PBS containing 10% calf serum to block nonspecific binding sites. Cells are then incubated at 37° C for 60 min. with either monoclonal anti-S-tubulin or with monoclonal anti-vimentin at dilutions recommended by the manufacturer. Bound primary antibodies are subsequently visualized by a 45-minute incubation with fluorescein-conjugated rabbit antimouse IgG. The coverslips are mounted on microscope slides and the fluorescence patterns are examined and photographed using a Zeiss Photomicroscope Ill equipped with epifluorescence optics for fluorescein. […] PBS containing 100 nM TRITC-phalloidin is then added and the mixture is allowed to incubate for 45 min. at 37° C. The cells are washed rapidly with PBS before the coverslips are mounted and immediately photographed as described above.
After 24 hours, microtubules and vimentin intermediate filaments are visualized by indirect immunofluorescence and microfilaments are stained using TRITC-phalloidin. The morphological effects of each drug is examined.
After 24 hours, microtubule organization is examined by immunofluorescence as described above.
The cells are then washed and incubated in drug-free medium for periods of 1 hour or 24 hours. […] Cells are visualized for microtubule state after treatment with a cryptophycin compound of this invention at either 1 hour or 24 hours after removal of the cryptophycin compounds.

IC50 [1]: 4.2 µM
SMILES: CC[C@]1(O)C[C@@H]2CN(CCc3c([nH]c4ccccc34)[C@@](C(=O)OC)(c3cc4c(cc3OC)N(C)[C@H]3[C@@](O)(C(=O)OC)[C@H](OC(C)=O)[C@]5(CC)C=CCN6CC[C@]43[C@@H]65)C2)C1 [Vinblastine, vinblastine]
Microtubule repolymerization after removal of drug ([2]; then 1 hour in drug-free medium): significant levels of microtubules after 1 hour
Microtubule repolymerization after removal of drug ([2]; then 24 hours in drug-free medium): complete morphological recovery by 24 hour
Effect on microtubules ([2]; 100 nM vinblastine, 24 hours, not pretreated): complete depolymerization of microtubules; also recorded: complete microtubule depolymerization

IC50 [1]: 8 µM
SMILES: CC(=O)O[C@H]1C(=O)[C@@]2(C)[C@H]([C@H](OC(=O)c3ccccc3)[C@]3(O)C[C@H](OC(=O)[C@H](O)[C@@H](NC(=O)c4ccccc4)c4ccccc4)C(C)=C1C3(C)C)[C@]1(OC(C)=O)CO[C@@H]1C[C@@H]2O [Taxol, taxol]
Microtubule organization in taxol-treated cells ([2]; 10 μM taxol, compared with control cells): extensively bundled
Effect of taxol pretreatment on vinblastine-induced microtubule depolymerization ([2]; 3 hours 10 μM taxol before 100 nM vinblastine, 24 hours): prevented microtubule depolymerization in response to vinblastine

melting point: 258 to 260 °C
SMILES: COc1ccc(C[C@H]2NC(=O)/C=C/C[C@@H]([C@H](C)/C=C/c3ccccc3)OC(=O)[C@H](CC(C)C)NC(=O)CC(CC(C)C)NC2=O)cc1Cl (stereo partly shown)

SMILES: C=C1[C@@H](C)[C@H]2[C@H](Cc3ccccc3)NC(=O)[C@]23OC(=O)/C=C/[C@H](O)CCC[C@@H](C)C/C=C/[C@H]3[C@@H]1O [Cytochalasin B, cytochalasin B]
Effect on distribution of microtubules and intermediate filaments ([2]; 2 μM cytochalasin B, 24 hours): did not affect the distribution of either microtubules or intermediate filaments
Effect on microfilaments ([2]; 2 μM cytochalasin B, 24 hours, TRITC-phalloidin staining): complete depolymerization of microfilaments
